According to patent US10925875B2 (National Jewish Health, priority 2018, dated 2021):

Legend:
Type in all cases: cell-based, human
[1] = test system: IL5+ ILC2s from the blood; experiment: Steroid response of blood IL5+ ILC2s by flow cytometry; conditions: MNC and BAL cells, Dex 10^−7M, 3 days, e-Fluor 780
Experimental: (§1) FIGS. 1A and 1B show the effect of dexamethasone (Dex) on blood (A) and bronchoalveolar lavage (BAL) (B) Type 2 innate lymphoid cells (ILC2s). Peripheral blood mononuclear cells (PBMC) and BAL cells from an asthmatic patient were cultured with vehicle (V, ethanol)) or dexamethasone (Dex 10^−7M), a synthetic steroid, for 3 days. The frequency of lin−CRTH2+IL7Rα+IL5+ cells (considered as markers of ILC2s) was measured by flow cytometry (FCM) and analyzed by FlowJo. Frequency of dead cells (measured by e-Fluor 780, e-Bioscience) was less than 10% and excluded from the gating. The difference in dead cells between V and Dex was less than 10%). Prostaglandin D2 receptor 2 (CRTH2); interleukin-7 receptor alpha (IL7Rα); interleukin-5 (IL-5).
FIGS. 1C and 1D show the cumulative data on the effect of dexamethasone (Dex) on blood (FIG. 1C) and BAL (FIG. 1D) lin−CRTH2+IL7Rα+IL5+ cells from 14 allergic asthmatic patients.
(§2) Steroid response of ILC2s from the bronchoalveolar lavage (BAL, obtained during bronchoscopy) and blood obtained from asthmatic patients was studied. Blood was processed to isolate mononuclear cells (MNC). BAL cells were studied without further processing. […] Interluekin-5 (IL5)-expressing ILC2s were examined by flow cytometry and analyzed by FlowJo. […] Frequency of dead cells (measured by e-Fluor 780, e-Bioscience) was less than 10% and excluded from the gating. […]

[2] = test system: BAL IL5+ ILC2s; experiment: Steroid response of BAL IL5+ ILC2s by flow cytometry; conditions: BAL cells, MS 100 μM with and without Dex 10^−7M, 3 days
Experimental: as §1, with “(IL-5). […]” for “(IL-5).”
BAL cells were cultured with MS (100 μM) with and without Dex (10^−7M) for 3 days. IL5 expression by lin−CRTH2+IL7Rα+ ILC2s was measured by FCM (N=8, *: P=0.0006 by Kruskal Walis test).
as §2, with “studied.” for “studied. Blood was processed to isolate mononuclear cells (MNC). BAL cells were studied without further processing.”

[3] = test system: IL5 secretion by ILCs; experiment: Secreted IL5 by ELISA from isolated Lin− blood cells; conditions: Dex 10^-7 M, 5 days
Experimental: (§3) FIGS. 2C and 2D show lineage-negative (Lin−) cells (0.4×10^6 per culture) from peripheral blood obtained from 3 allergic rhinitis (non-asthmatic) patients were cultured with IL2/IL33 or IL2/TSLP with and without Dex (10^-7 M) for 5 days. Cell-free supernatant was analyzed for IL5 by ELISA. Cells were analyzed by FCM for intracellular IL5. P value for data on panel C was calculated by paired t test due to low N. Interleukin-2 (IL-2); interleukin-33 (IL-33).
(§4) The direct effect of Dex on isolated lineage− negative (Lin−) cells (representing ILCs) from the peripheral blood was examined. The effect of Dex was measured by two approaches: measurement of secreted IL5 by ELISA and measurement of the expression of intracellular IL5 by FCM. Dex inhibited IL5 secretion by IL2/IL33-stimulated ILCs by nearly 79% (FIG. 2C). In contrast, it inhibited IL5 secretion by IL2/TSLP-stimulated ILCs by only 25%. […] Dex inhibited intracellular IL5 expression in IL2/IL33- and IL2/TSLP-stimulated ILCs by 65% and 18%, respectively (FIG. 2D).

[4] = test system: intracellular IL5 expression in ILCs; experiment: Intracellular IL5 by FCM in isolated Lin− blood cells; conditions: Dex 10^-7 M, 5 days
Experimental: as §3, §4

[5] = test system: MEK1/2 in ILC2s; experiment: Cytokine-induced MEK1/2 in ILC2s by FCM; conditions: PBMCs, IL2 plus TSLP with and without Dex, 5 days, lin−CRTH2+ cells
Experimental: FIGS. 4A and 4B show the effect of Dex on cytokine-induced MEK1 (MEK) induction. PBMCs from an asthmatic patient were cultured with medium or IL2 plus one of the two epithelial ILC-inducing cytokines—IL33 and TSLP with and without Dex for 5 days. The expression of MEK on gated live lin−CRTH2+ cells was analyzed by FCM.
Heightened MEK1/2 mediates steroid resistance of lymphocytes. The effect of IL33 and TSLP on MEK1/2 induction and the effect of Dex was examined.

difference in dead cells between V and Dex [1]: less than 10%
SMILES: C[C@@H]1C[C@H]2[C@@H]3CCC4=CC(=O)C=C[C@]4(C)[C@@]3(F)[C@@H](O)C[C@]2(C)[C@@]1(O)C(=O)CO [Dex, dexamethasone]
inhibition of BAL IL5+ ILC2s [2]: failed to inhibit
inhibition of IL5 secretion ([3]; IL2/IL33-stimulated ILCs): ~79%
inhibition of IL5 secretion ([3]; IL2/TSLP-stimulated ILCs): 25%
inhibition of intracellular IL5 expression ([4]; IL2/IL33-stimulated ILCs): 65%
inhibition of intracellular IL5 expression ([4]; IL2/TSLP-stimulated ILCs): 18%
TSLP-induced MEK1/2 [5]: failed to inhibit
